Results reported in article PMC12138715, “Exploring Boswellia serrata Triterpenes: A New Frontier in Leukemia Inhibitory Factor Receptor Modulation” (ACS Omega, 2025).

Legend:
[1] = molecular target: T1, leukemia inhibitory factor receptor (LIFR) (Homo sapiens, UniProt P42702); experiment: cell-free AlphaScreen LIF/LIFR binding inhibition; LIFR transactivation in HepG2
T1 construct: Recombinant human LIFR (His-Tag)

[2] = molecular target: T1, leukemia inhibitory factor receptor (LIFR); experiment: cell-free AlphaScreen LIF/LIFR binding inhibition
[3] = test system: leukemia inhibitory factor receptor (LIFR); experiment: cells; design: LIFR/STAT3 luciferase reporter transactivation, LIF 10 ng/mL stimulated, Renilla normalized; details: Homo sapiens, HepG2, 24 h; LIF 10 ng/mL stimulated; read-out: Transactivation Inhibition (%), 50 µM
Protocol: Luciferase Reporter Gene Assay To evaluate the LIFR/STAT3 signaling, HepG2 (HB, 8065 from ATCC), were seeded at 7.5 × 10^4 cells/well in a 24-well plate and maintained at 37 °C and 5% CO2 in E-MEM added with 10% FBS, 1% glutamine, and 1% penicillin/streptomycin. On day-1, cells were transiently transfected with the reporter plasmid pGL4.47[luc2P/SIE/Hygro] (CAT no. E4041 Promega, Madison, WI, USA), a vector encoding the hLIFR (CAT no. RC226327) and CD130 (IL6ST) (CAT no. RC215123, OriGene Technologies, Inc. Rockville, MD USA), and finally a vector encoding the human Renilla luciferase gene (pGL4.70) (Promega, Madison, WI, USA). On day-2, cells were primed with the cytokine LIF (10 ng/mL) alone or in combination with different compounds at the concentrations of 10 μM and 50 μM. Then, after 24 h, cellular lysate was assayed for luciferase and Renilla activities using the Firefly & Renilla Luciferase Single TubeAssay Kit (Biotium, Fremont, CA). Luminescence was measured using Glomax 20/20 luminometer (Promega, Madison, WI, USA). Luciferase activities were normalized with Renilla activities.

[4] = molecular target: T1, leukemia inhibitory factor receptor (LIFR); experiment: biochemical; design: Alpha Screen inhibition of biotinylated LIF binding to His-tagged human LIFR; details: LIF/LIFR binding
Protocol: Amplified Luminescent Proximity Homogeneous Assay on LIF-LIFR Recombinant human LIFR (His-Tag) and LIF (biotinylated) were purchased from Sino Biologicals (Sino Biological Europe GmbH, Dusseldorf, Germany) and R&D Systems (Abingdon, UK), respectively, and both were reconstituted as required by the manufacturer. Inhibition of LIFR/LIF binding was measured by Alpha Screen, in white, low-volume, 384-well AlphaPlates (Revvity, Italy) using a final volume of 15 μL and an assay buffer containing 25 mM Hepes (pH 7.4), 100 mM NaCl, and 0.005% Kathon. The concentration of DMSO in each well was maintained at 5% vol/vol. LIFR (His-Tag, final concentration 4.5 nM) was incubated with either the compounds or DMSO for 45 min under continuous shaking. Then, LIF was added (biotinylated, final concentration 9 nM), and the samples were incubated for 15 min prior to adding nickel chelate acceptor beads (final concentration 20 ng/μL) for 30 min. Then, streptavidin donor beads were added (final concentration 20 ng/μL), and the plate was incubated in the dark for 2 h and then read in a Victor Nivo (Revvity, Italy) Multimode Microplate Reader.

T1 sequence (P42702 45-1097): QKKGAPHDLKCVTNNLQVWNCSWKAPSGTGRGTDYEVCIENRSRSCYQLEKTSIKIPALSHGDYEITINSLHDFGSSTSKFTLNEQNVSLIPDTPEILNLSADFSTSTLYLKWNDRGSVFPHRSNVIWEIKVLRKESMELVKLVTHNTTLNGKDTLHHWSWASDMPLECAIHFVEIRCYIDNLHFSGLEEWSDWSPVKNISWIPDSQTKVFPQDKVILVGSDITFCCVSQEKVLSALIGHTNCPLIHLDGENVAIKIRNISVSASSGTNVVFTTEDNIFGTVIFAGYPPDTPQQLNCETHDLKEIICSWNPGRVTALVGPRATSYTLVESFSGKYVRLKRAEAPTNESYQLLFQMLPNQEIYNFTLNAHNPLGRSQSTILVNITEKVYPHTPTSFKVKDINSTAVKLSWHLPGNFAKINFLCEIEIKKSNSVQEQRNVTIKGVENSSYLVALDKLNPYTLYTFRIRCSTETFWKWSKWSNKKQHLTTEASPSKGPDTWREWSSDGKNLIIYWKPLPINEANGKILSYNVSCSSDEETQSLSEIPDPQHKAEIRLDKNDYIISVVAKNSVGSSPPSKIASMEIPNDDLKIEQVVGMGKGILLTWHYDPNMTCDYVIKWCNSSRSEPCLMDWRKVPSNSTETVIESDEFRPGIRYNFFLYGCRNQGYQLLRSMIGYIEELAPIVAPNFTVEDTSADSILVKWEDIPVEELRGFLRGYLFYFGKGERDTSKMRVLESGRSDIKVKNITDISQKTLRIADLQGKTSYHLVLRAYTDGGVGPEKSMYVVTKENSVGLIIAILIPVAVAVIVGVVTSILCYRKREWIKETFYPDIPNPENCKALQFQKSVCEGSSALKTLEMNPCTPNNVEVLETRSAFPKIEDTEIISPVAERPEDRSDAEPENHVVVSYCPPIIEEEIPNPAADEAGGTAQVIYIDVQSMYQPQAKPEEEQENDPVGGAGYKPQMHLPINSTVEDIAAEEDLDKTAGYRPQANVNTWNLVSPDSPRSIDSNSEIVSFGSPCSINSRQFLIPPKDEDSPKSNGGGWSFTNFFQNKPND
T1 sequence (P15018 23-202 partner): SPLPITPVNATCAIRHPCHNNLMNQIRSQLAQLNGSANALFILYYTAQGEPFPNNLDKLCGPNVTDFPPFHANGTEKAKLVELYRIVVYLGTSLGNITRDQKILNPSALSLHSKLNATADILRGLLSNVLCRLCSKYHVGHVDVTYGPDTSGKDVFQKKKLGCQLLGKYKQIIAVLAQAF

Compound	inhibition at 10 µM [4]	inhibition at 50 µM [4]	inhibition at 50 µM [3]	further results
CC1(C)CC[C@]2(C)CC[C@]3(C)C(=CC[C@@H]4[C@@]5(C)CC[C@@H](O)[C@](C)(C(=O)O)[C@@H]5CC[C@]43C)[C@@H]2C1 [compound 1, (4R)-3α-Hydroxyolean-12-en-24-oic Acid]	–	–	–	IC50 [1]: < 10 µM
C[C@H]1[C@H](C)CC[C@]2(C)CC[C@]3(C)C(=CC[C@@H]4[C@@]5(C)CC[C@@H](O)[C@](C)(C(=O)O)[C@@H]5CC[C@]43C)[C@H]12 [compound 2, (4R)-3α-Hydroxyurs-12-en-24-oic Acid]	–	–	–	IC50 [1]: < 10 µM
CC(=O)O[C@@H]1CC[C@@]2(C)[C@@H](CC[C@]3(C)[C@@H]2CC=C2[C@@H]4CC(C)(C)CC[C@]4(C)CC[C@]23C)[C@@]1(C)C(=O)O [compound 3, (4R)-3α-Acetylolean-12-en-24-oic Acid]	–	–	–	IC50 ([2]; read-out: IC50): < 10 µM
CC(=O)O[C@@H]1CC[C@@]2(C)[C@@H](CC[C@]3(C)[C@@H]2CC=C2[C@@H]4[C@@H](C)[C@H](C)CC[C@]4(C)CC[C@]23C)[C@@]1(C)C(=O)O [compound 4, (4R)-3α-Acetylurs-12-en-24-oic Acid]	–	–	–	IC50 ([2]; read-out: IC50): < 10 µM
CC(C)=CCC[C@H](C(=O)O)[C@@H]1CC[C@]2(C)C3=C(CC[C@@]12C)[C@@]1(C)CC[C@@H](O)C(C)(C)[C@@H]1CC3 [compound 15, 3α-Hydroxytirucalla-8,24-dien-21-oic Acid]	–	–	–	IC50 [2]: < 10 µM
CC(C)=CCC[C@H](C(=O)O)[C@@H]1CC[C@]2(C)C3=C(CC[C@@]12C)[C@@]1(C)CC[C@H](O)C(C)(C)[C@@H]1CC3 [compound 16, 3β-Hydroxytirucalla-8,24-dien-21-oic Acid]	–	–	–	IC50 [2]: < 10 µM
CC(C)=CCC[C@H](C(=O)O)[C@@H]1CC[C@]2(C)C3=C(CC[C@@]12C)[C@@]1(C)CCC(=O)C(C)(C)[C@@H]1CC3 [compound 17, 3-Oxotirucalla-8,24-dien-21-oic Acid]	–	–	–	IC50 [2]: < 10 µM

Second part, led by results:

inhibition at 10 µM [4]	inhibition at 50 µM [4]	Compound	inhibition at 50 µM [3]	further results
45.4%	67.7%	CC1(C)CCC2(C)CCC3(C)C(=CCC4C5(C)CCC(O)C(C)(C(=O)NCCS(=O)(=O)O)C5CCC43C)C2C1 (stereo not shown) [compound 21, 21]	68.8%	–
51.3%	83.7%	CC1(C)CCC2(C)CCC3(C)C(=CCC4C5(C)CCC(O)C(C)(C(=O)NCC(=O)O)C5CCC43C)C2C1 (stereo not shown) [compound 22, 22]	58.3%	–
52.9%	88.5%	CC1CCC2(C)CCC3(C)C(=CCC4C5(C)CCC(O)C(C)(C(=O)NCCS(=O)(=O)O)C5CCC43C)C2C1C (stereo not shown) [compound 23, 23]	70.2%	–
48.7%	86.9%	CC1CCC2(C)CCC3(C)C(=CCC4C5(C)CCC(O)C(C)(C(=O)NCC(=O)O)C5CCC43C)C2C1C (stereo not shown) [compound 24, 24]	74.8%	–
